Measured values taken from ChEMBL document CHEMBL1142168, “Prevalence and susceptibility testing of new species of pseudallescheria and scedosporium in a collection of clinical mold isolates” (2007).
In brackets after ≈: the same amount, converted by molar mass.

Columns and labels:
[1] = Antifungal activity against Scedosporium aurantiacum sputum isolate CNM-CM-2631 at 48 hrs; assay type: functional
Scedosporium aurantiacum [2] = assay: Antifungal activity against Scedosporium aurantiacum corneal isolate CNM-CM-2923 at 48 hrs; assay type: functional; details: Cornea
Scedosporium apiospermum = assay: Antifungal activity against Scedosporium apiospermum isolates at 48 hrs
Scedosporium aurantiacum [3] = assay: Antifungal activity against Scedosporium aurantiacum ear swab isolate CNM-CM-2846 at 48 hrs; assay type: functional
[4] = Antifungal activity against Scedosporium aurantiacum bronchial aspirate isolate CNM-CM-4183 at 48 hrs; assay type: functional

SMILES	MIC [1]	MIC (Scedosporium aurantiacum [2])	MIC (Scedosporium apiospermum)	MIC (Scedosporium aurantiacum [3])	MIC [4]
C[C@@H]1[C@H](O)[C@@H](C)/C=C/C=C/C=C/C=C/C=C/C=C/C=C/[C@H](O[C@@H]2O[C@H](C)[C@@H](O)[C@H](N)[C@@H]2O)C[C@@H]2O[C@](O)(C[C@@H](O)C[C@@H](O)[C@H](O)CC[C@@H](O)C[C@@H](O)CC(=O)O[C@H]1C)C[C@H](O)[C@H]2C(=O)O [AMPHOTERICIN B]	4 µg/mL (≈ 4.33 µM)	8 µg/mL (≈ 8.66 µM)	0.25 µg/mL (≈ 0.271 µM)	16 µg/mL (≈ 17.3 µM)	8 µg/mL (≈ 8.66 µM)
CCC(C)n1ncn(-c2ccc(N3CCN(c4ccc(OCC5COC(Cn6cncn6)(c6ccc(Cl)cc6Cl)O5)cc4)CC3)cc2)c1=O (stereo not given) [ITRACONAZOLE]	2 µg/mL (≈ 2.83 µM)	16 µg/mL (≈ 22.7 µM)	0.25 µg/mL (≈ 0.354 µM)	8 µg/mL (≈ 11.3 µM)	16 µg/mL (≈ 22.7 µM)
C[C@@H](c1ncncc1F)[C@](O)(Cn1cncn1)c1ccc(F)cc1F [VORICONAZOLE]	0.5 µg/mL (≈ 1.43 µM)	16 µg/mL (≈ 45.8 µM)	0.125 µg/mL (≈ 0.358 µM)	1 µg/mL (≈ 2.86 µM)	0.5 µg/mL (≈ 1.43 µM)
